In patent US20260015350A1, “AZAQUINAZOLINE PAN-KRAS INHIBITORS” (Mirati Therapeutics, Inc., priority 2022, published 2026):

What was measured:
KRas^WT = target: T1, KRas^WT (Homo sapiens, UniProt P01116); assay: KRas binding assay (TR-FRET tracer displacement), KRas WT; conditions: TR-FRET tracer displacement, KRas WT
T1 construct: Biotinylated KRas (corresponding to amino acids 1-169, produced at Accelegan Inc.); biotin (biotinylated); purchased Accelegan Inc

KRas^G12S = target: T2, KRas^G12S (Homo sapiens, UniProt P01116, G12S); assay: KRas binding assay (TR-FRET tracer displacement), KRas G12S; conditions: TR-FRET tracer displacement, KRas G12S
T2 construct: Biotinylated KRas (corresponding to amino acids 1-169, produced at Accelegan Inc.); biotin (biotinylated); purchased Accelegan Inc
T2 sequence (P01116 1-169 isoform P01116-2 G12S): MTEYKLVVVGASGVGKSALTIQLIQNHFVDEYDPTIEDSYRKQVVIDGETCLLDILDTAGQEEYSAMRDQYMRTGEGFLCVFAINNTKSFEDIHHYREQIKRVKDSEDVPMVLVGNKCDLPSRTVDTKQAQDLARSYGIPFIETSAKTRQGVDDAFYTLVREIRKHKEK

[1] = tested on: KRas-mediated phosphorylation of ERK in H727 cells; assay: Inhibition of KRas-mediated phosphorylation of ERK (Cisbio HTRF pERK), H727 cells; type: cell-based; conditions: Homo sapiens, NCI-H727, H727 cells; HTRF pERK
Summary of the method: (§1)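 H358, H727, H460 and AsPC-1 cells seeded at 6,000/well, treated 3 hrs with 10-dose 3-fold dilutions from 10 uM (0.8% DMSO); 0.2 uM trametinib as min control. Lysed 40 min at 4° C; lysate incubated 2 hrs at room temperature with d2/cryptate antibodies, HTRF read.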

KRas^G12D = target: T3, KRas^G12D (Homo sapiens, UniProt P01116, G12D); assay: KRas binding assay (TR-FRET tracer displacement), KRas G12D
T3 construct: Biotinylated KRas (corresponding to amino acids 1-169, produced at Accelegan Inc.); biotin (biotinylated); purchased Accelegan Inc
T3 sequence (P01116 1-169 isoform P01116-2 G12D): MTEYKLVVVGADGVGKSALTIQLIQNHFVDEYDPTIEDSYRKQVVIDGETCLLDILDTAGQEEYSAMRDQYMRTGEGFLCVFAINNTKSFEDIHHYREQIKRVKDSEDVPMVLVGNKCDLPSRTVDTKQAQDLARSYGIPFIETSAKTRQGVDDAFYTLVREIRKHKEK

[2] = tested on: KRas-mediated phosphorylation of ERK in AsPC-1 cells; assay: Inhibition of KRas-mediated phosphorylation of ERK (Cisbio HTRF pERK), AsPC-1 cells; type: cell-based; conditions: Homo sapiens, ASPC1, AsPC-1 cells; HTRF pERK
Summary of the method: as §1

[3] = tested on: KRas-mediated phosphorylation of ERK in H358 cells; assay: Inhibition of KRas-mediated phosphorylation of ERK (Cisbio HTRF pERK), H358 cells; type: cell-based; conditions: Homo sapiens, NCI-H358, HTRF pERK
Summary of the method: as §1

[4] = tested on: KRas-mediated phosphorylation of ERK in A549 cells; assay: Inhibition of KRas-mediated phosphorylation of ERK (Cisbio HTRF pERK), A549 cells; type: cell-based; conditions: Homo sapiens, HTRF pERK
Summary of the method: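 A cell-based HTRF pERK assay: ten-point, threefold titrations beginning at 10 uM were applied for 3 hrs, with 0.2 uM Trametinib wells as the minimum control. Cells were lysed cold, and lysate was incubated with the antibody pair for 2 hrs before reading.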

KRas^G12V = target: T4, KRas^G12V (Homo sapiens, UniProt P01116, G12V); assay: KRas binding assay (TR-FRET tracer displacement), KRas G12V
T4 construct: Biotinylated KRas (corresponding to amino acids 1-169, produced at Accelegan Inc.); biotin (biotinylated); purchased Accelegan Inc
T4 sequence (P01116 1-169 isoform P01116-2 G12V): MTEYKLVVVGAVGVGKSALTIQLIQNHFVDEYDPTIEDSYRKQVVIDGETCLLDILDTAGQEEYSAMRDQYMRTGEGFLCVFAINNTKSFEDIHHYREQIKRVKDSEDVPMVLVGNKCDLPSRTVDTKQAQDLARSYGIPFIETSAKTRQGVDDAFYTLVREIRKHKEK

KRas^G12C = target: T5, KRas^G12C (Homo sapiens, UniProt P01116, G12C); assay: KRas binding assay (TR-FRET tracer displacement), KRas G12C; conditions: TR-FRET tracer displacement, KRas G12C
T5 construct: Biotinylated KRas (corresponding to amino acids 1-169, produced at Accelegan Inc.); biotin (biotinylated); purchased Accelegan Inc
T5 sequence (P01116 1-169 isoform P01116-2 G12C): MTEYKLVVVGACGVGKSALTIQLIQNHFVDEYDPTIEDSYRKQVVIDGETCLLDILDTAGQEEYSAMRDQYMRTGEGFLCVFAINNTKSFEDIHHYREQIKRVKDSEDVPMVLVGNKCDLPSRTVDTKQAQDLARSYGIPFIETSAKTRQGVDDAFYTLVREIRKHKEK

[5] = tested on: KRas-mediated phosphorylation of ERK in MKN1 cells; assay: Inhibition of KRas-mediated phosphorylation of ERK (Cisbio HTRF pERK), MKN1 cells; type: cell-based; conditions: Homo sapiens, MKN-1
Summary of the method: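 HTRF pERK read-out; 6,000 cells/well, RPMI_10% FBS, overnight 37° C./5% CO2; 4 h covered incubation at RT before reading.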

T1 sequence (P01116 1-169 isoform P01116-2): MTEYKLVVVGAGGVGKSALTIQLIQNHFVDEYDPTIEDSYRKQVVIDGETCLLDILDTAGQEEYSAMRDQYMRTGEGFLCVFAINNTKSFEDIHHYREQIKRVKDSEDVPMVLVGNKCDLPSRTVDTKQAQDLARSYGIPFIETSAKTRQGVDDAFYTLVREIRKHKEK

SMILES | IC50 (KRas^WT) [nM] | IC50 (KRas^G12S) [nM] | IC50 [1] [nM] | IC50 (KRas^G12D) [nM] | IC50 [2] [nM] | IC50 [3] [nM] | IC50 [4] [nM] | IC50 (KRas^G12V) [nM] | IC50 (KRas^G12C) [nM] | IC50 [5] [nM]
CCc1c(F)ccc2cc(O)cc(-c3ncc4c(N5C[C@@H]6C[C@H](C5)[C@H](O)C6)nc(OCC56CCCN5C/C(=C/F)C6)nc4c3F)c12 (stereo partly drawn) [Example 930, (1R,5R,6R)-3-(7-(8-ethyl-7-fluoro-3-hydroxynaphthalen-1-yl)-8-fluoro-2-(((E)-2-(fluoromethylene)tetrahydro-1H-pyrrolizin-7a(5H)-yl)methoxy)pyrido[4,3-d]pyrimidin-4-yl)-3-azabicyclo[3.2.1]octan-6-ol] | < 2 | < 2 | 4 | < 2 | 13 | 1 | 3 | < 2 | < 2 | 
C#Cc1c(F)ccc2cc(O)cc(-c3ncc4c(N5CCCC6(CCO6)C5)nc(OC[C@@]56CCCN5C[C@H](F)C6)nc4c3F)c12 (stereo partly drawn) [Example 935, 5-ethynyl-6-fluoro-4-(8-fluoro-2-(((2R,7aS)-2-fluorotetrahydro-1H-pyrrolizin-7a(5H)-yl)methoxy)-4-(1-oxa-6-azaspiro[3.5]nonan-6-yl)pyrido[4,3-d]pyrimidin-7-yl)naphthalen-2-ol] | 7 | 5 | 73 | 4 | 70 |  |  | 4 | 7 | 

Results, then the compound that gave them:

IC50 (KRas^WT) [nM] | IC50 (KRas^G12S) [nM] | IC50 [1] [nM] | IC50 (KRas^G12D) [nM] | IC50 [2] [nM] | IC50 [3] [nM] | IC50 [4] [nM] | IC50 (KRas^G12V) [nM] | IC50 (KRas^G12C) [nM] | IC50 [5] [nM] | SMILES
< 2 | < 2 | 6 | < 2 | 11 | 1 | 7 | < 2 | < 2 | 0.2 | C=C1CN2CCCC2(COc2nc(N3CCCC4(CC(O)C4)C3)c3cnc(-c4cc(O)cc5ccc(F)c(CC)c45)c(F)c3n2)C1 (stereo not shown) [Example 934, 6-(7-(8-ethyl-7-fluoro-3-hydroxynaphthalen-1-yl)-8-fluoro-2-((2-methylenetetrahydro-1H-pyrrolizin-7a(5H)-yl)methoxy)pyrido[4,3-d]pyrimidin-4-yl)-6-azaspiro[3.5]nonan-2-ol]
< 2 | < 2 | 50 | < 2 | 32 | 4 | 27 | < 2 | < 2 | 0.4 | C=C1CN2CCCC2(COc2nc(N3CCCC4(CC(=O)N4)C3)c3cnc(-c4cc(O)cc5ccc(F)c(CC)c45)c(F)c3n2)C1 (stereo not shown) [Example 943, 6-(7-(8-ethyl-7-fluoro-3-hydroxynaphthalen-1-yl)-8-fluoro-2-((2-methylenetetrahydro-1H-pyrrolizin-7a(5H)-yl)methoxy)pyrido[4,3-d]pyrimidin-4-yl)-1,6-diazaspiro[3.5]nonan-2-one]
< 2 | < 2 | 352 | < 2 | 157 | 29 | 119 | < 2 | < 2 | 4 | C=C1CN2CCCC2(COc2nc(N3CC4C(=O)NC(=O)C4C3)c3cnc(-c4cc(O)cc5ccc(F)c(CC)c45)c(F)c3n2)C1 (stereo not shown) [Example 947, 5-(7-(8-ethyl-7-fluoro-3-hydroxynaphthalen-1-yl)-8-fluoro-2-((2-methylenetetrahydro-1H-pyrrolizin-7a(5H)-yl)methoxy)pyrido[4,3-d]pyrimidin-4-yl)tetrahydropyrrolo[3,4-c]pyrrole-1,3(2H,3aH)-dione]
